The values that follow come from ChEMBL document CHEMBL1135132, “Synthesis of more potent analogues of the acetylcholinesterase inhibitor, huperzine B” (Bioorg Med Chem Lett, 2002).

This test concerns the target T1, Acetylcholinesterase (Bos taurus, UniProt P23795).
T1 sequence (P23795 whole entry): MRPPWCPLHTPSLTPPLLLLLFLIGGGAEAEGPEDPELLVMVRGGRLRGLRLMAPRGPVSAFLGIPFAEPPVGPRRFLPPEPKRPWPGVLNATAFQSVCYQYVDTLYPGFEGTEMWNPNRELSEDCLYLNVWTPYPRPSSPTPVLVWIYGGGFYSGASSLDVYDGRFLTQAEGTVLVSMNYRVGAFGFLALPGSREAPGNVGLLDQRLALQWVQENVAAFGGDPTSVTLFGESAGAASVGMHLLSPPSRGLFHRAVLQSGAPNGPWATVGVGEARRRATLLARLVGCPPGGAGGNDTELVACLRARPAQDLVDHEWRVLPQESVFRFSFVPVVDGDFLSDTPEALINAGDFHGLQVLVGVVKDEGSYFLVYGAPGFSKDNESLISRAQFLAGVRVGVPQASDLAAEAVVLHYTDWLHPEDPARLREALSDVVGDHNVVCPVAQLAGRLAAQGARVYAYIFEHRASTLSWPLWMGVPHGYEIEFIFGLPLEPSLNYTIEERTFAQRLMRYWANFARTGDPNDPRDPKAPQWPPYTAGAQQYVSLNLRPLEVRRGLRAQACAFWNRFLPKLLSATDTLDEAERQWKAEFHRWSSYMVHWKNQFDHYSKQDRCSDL
Put plainly: Inhibitory constant against fetal bovine serum (FBS) acetylcholinesterase.
In general, Ki refers to a measure of affinity in units of concentration, obtained from inhibition or displacement. Read a high Ki as weaker binding. On to `CC1=CC2Cc3nc(O)ccc3C3(C1)NCC(C)=C23` (stereo not given), for which the Ki is 220 nM. This lies in the sub-micromolar range.
Compound `CC1=C[C@H]2Cc3[nH]c(=O)ccc3[C@]3(C1)NCCC[C@H]23` [HUPERZINE B] showed a Ki of 794 nM. Compared with the last compound, the Ki is about 3.6-fold higher.
`C/C=C1\[C@H]2C=C(C)C[C@]1(N)c1ccc(=O)[nH]c1C2` [HUPERZINE A] returned a Ki of 24 nM.
Then `CCC1=C2C3C=C(C)CC2(NC1)c1ccc(O)nc1C3` (stereo not given), with 400 nM.
Take `CC1=CC2Cc3[nH]c(=O)ccc3C3(C1)NCCC(C)=C23` (stereo not given): the inhibition constant (Ki) is 2050 nM. This Ki is about 5.1-fold higher than that of the compound before.
